Measured values as given in publication PMC13252604, “First Generation Proteolysis Targeting Chimeras (PROTACs) for the Treatment of Progeria” (Advanced Science, 2026).

Columns and labels:
[1] = test system: HGADFN167 Lmna^G608G/G608G fibroblasts; assay: Immunoblot and immunocytofluorescence analysis in human progeroid cells (Ki‐67, nuclei, pH2AX, H3K9Me3); format: cell-based; conditions: HGADFN167, 5 µM, 20 days
Excerpt: FIGURE 6 (A) Representative cropped immunoblots and progerin quantification in human Lmna^G608G/G608G fibroblasts. MW, molecular weight (in kDa) markers. […] (B) PROTAC 2 increases cell proliferation (upper panels) and decreases the number of misshapen nuclei (lower panels). White arrows highlight selected misshapen nuclei. (C) PROTAC 2 decreases senescence‐associated β‐galactosidase (SA‐βgal) activity, interleukin (IL) 6, p16 and p21 senescent markers. Bar graphs show mean±sem of 2 (SA‐βgal and p21) or 3 (IL‐6 and p16) independent experiments performed in triplicate. (D) PROTAC 2 decreases phosphorylated histone 2AX (pH2AX) and increases trimethylated histone 3 (H3K9Me3) levels. (E) PROTAC 2 increases the oxygen consumption rate (OCR), ATP production and the number of healthy mitochondria in human progeroid cells. Bar graphs show mean±sem of 2 independent experiments performed in duplicate. In all cases, HGADFN167 Lmna^G608G/G608G (G608G) or HGFDFN168 Lmna^+/+ (WT) fibroblasts, provided by the Progeria Research Foundation, were incubated with vehicle or 2 (5 µM) for 20 days. Data were analysed using one‐way ANOVA followed by Dunnett's post–hoc test vs vehicle (panel A) or vs G608G cells (panels B‐E). ^*, p < 0.05; ^**, p < 0.01; ^***, p < 0.001; ^****, p < 0.0001. Microscopy images are representative of 2 independent experiments and corresponding bar graphs show mean±sem of 4 fields from 2 independent experiments. […]
compound exposure. Then, cells were incubated with compound of interest or DMSO for the appropriate time and lysed with cold laemmli buffer (50 mM Tris-HCl pH 7.4, 150 mM NaCl, 1% Igepal) with a mixture of protease and phosphatase inhibitors (1 mM PMSF, 10 mM NaF, 0.3 mg/mL CalyculinA, 1 mM sodium orthovanadate, 10 mM β-glycerol-phosphate; all from Sigma-Aldrich and complete protease inhibitor cocktail, from Roche). Proteins were denatured at 95 ᵒC for 5 min and the lysates were immediately used or stored at -20 ᵒC until use. Samples were analysed by electrophoresis in polyacrylamide gels (All Kd SDS-PAGE, BioRad) and the proteins transferred to nitrocellulose membranes (GE Healthcare, Amersham). After 1 h of incubation in blocking buffer [20 mM Tris pH 7.6, 150 mM NaCl and 0.1% Tween-20 (TBS-T) with 5% of bovine serum albumin (BSA)], blots were incubated overnight at 4 ᵒC with the corresponding primary antibody: anti-phospho-histone 2AX (Ser139) (EMD Millipore, […]
GAPDH (Cell Signaling, 2118S, 1:5000) and anti-actin (Santa Cruz Biotechnology, sc-376248, 1:500) as antibodies for loading control. Then, membranes were washed (3x10 min) with TBS-T and incubated with the corresponding secondary antibody conjugated with peroxidase (Sigma- Aldrich) for 1 h at rt. […] The bands were quantified by densitometry using the […]

[2] = test system: Lmna^G609G/G609G mice; assay: In vivo treatment of progeroid Lmna^G609G/G609G mice; design: species or system mouse
Procedure: Weight was monitored during this time and at the end of the period mice were sacrificed and tissue was harvested to determine if PROTAC administration induced a decrease in the levels of progerin in vivo.
UHPLC with an oven temperature of 31.5 °C. The mass spectrometer ion optics were set in the multiple reaction monitoring mode and the transition selected for quantification […]
For in vivo treatment, compound 2 was administrated at a concentration of 25 mg/kg diluted in sterile corn oil (Sigma-Aldrich) intraperitoneally three times per week starting at the age of 6 weeks. The same quantity of corn oil was injected to control […]
LmnaG609G/G609G and Lmna+/+ mice. […]
stress in mice. The weight of each mouse was registered 2 to 3 times per week during the duration of the treatment.
After 7 weeks of treatment, mice were euthanized by CO2 inhalation. Immediately after sacrifice, tissues were harvested, frozen in dry ice, and kept at -80 °C until use. For immunoblot analysis, a portion of the corresponding tissue was homogenized, and the protein concentration was determined. Samples containing equivalent amounts of total protein were then subjected to polyacrylamide gel electrophoresis and analyzed as […]

[3] = Stability in cell culture; format: in vitro ADME
Excerpt: TABLE 1 Pharmacokinetic parameters of PROTAC 2. | column: Stability (hours) ^b / Cell culture

## CC1(C)Oc2cc3oc(=O)ccc3cc2C[C@@H]1OC(=O)CCCCCNc1cccc2c1C(=O)N(C1CCC(=O)NC1=O)C2=O (stereo partly drawn) [compound 2]
[1]
  H3K9Me3 levels: significantly increased H3K9Me3 levels
  cell proliferation (Ki‐67 expression): enhances cell proliferation
  number of misshapen nuclei: significantly reduced the number of misshapen nuclei
  pH2AX levels: reduced pH2AX levels to those observed in WT cells
[2]; 25 mg/kg i.p. in corn oil three times per week
  apparent damage or stress in mice: did not produce any apparent damage or stress in mice
[2]; Lmna^G609G/G609G mice, 25 mg/kg i.p. three times per week, seven weeks
  body weight: trend toward improved body weight
[2]; liver, Lmna^G609G/G609G mice, 25 mg/kg i.p. three times per week, 7 weeks
  H3K9Me3 levels in vivo: increased levels of H3K9Me3
[2]; lung, Lmna^G609G/G609G mice, 25 mg/kg i.p. three times per week, 7 weeks
  progerin levels in vivo: reduced levels of progerin
[3]
  Stability (hours) Cell culture: >24 h
